Where two headings read alike, the source gives them in different places.
Columns and labels:
Type in all cases: cell-based
[1] = target: T1, CDK1-NanoLuc fusion with CCNB1 in 293T or 293 cells (Homo sapiens, UniProt P06493); experiment: NanoBRET Target Engagement (TE) Intracellular Kinase Assay, CDK1/CCNB1; settings: 2-hour incubation
T1 construct: host or cells: 293T (ATCC CRL-3216) or 293 (ATCC CRL-1573)
Experimental: Inhibitory effects of compounds were measured in NanoBRET TE Intracellular Kinase Assay. 293T (ATCC; CRL-3216) or 293 (ATCC; CRL-1573) cell lines were maintained in 90% DMEM and 10% fetal bovine serum at 37° C., 5% CO2, and 95% relative humidity. Cells were trypsinized and resuspended in assay media (99% Opti-MEM I Reduced Serum Medium, no phenol red, and 1% fetal bovine serum). Cells were co-transfected with 1 μg/mL of CDK-NanoLuc Fusion Vector (Promega; NV2701 for CDK1, NV2781 for CDK2, NV2811 for CDK4, NV2841 for CDK6) and 1 μg/mL of the corresponding Cyclin Expression Vector (Promega; NV2601 for CCNB1, NV2641 for CCNE1, NV2621 for CCND1, NV2631 for CCND3) using FuGENE HD Transfection Reagent (Promega; E2311). 40 uL/well of cells with transfection mixture were seeded in 384-well plates at 1.25×10^5 to 2×10^5 cells/mL and incubated for 24 hours at 37° C., 5% CO2, and 95% relative humidity. On the next day, 100 nL of 100 μM NanoBRET Tracer K-10 (Promega; N2640) and 40 nL of 1000× test compounds prepared in DMSO were added to the cells in each well of 384-well plates for a 2-hour incubation at 37° C., 5% CO2, and 95% relative humidity. 20 uL/well of 3× Intracellular TE Nano-Glo Substrate/Inhibitor (Promega; N2162) were added to 384-well plates and incubated for 3 minutes at room temperature. NanoBRET signals (donor emission wavelength at 450 nm, acceptor emission wavelength at 610 nm) were measured using Envision plate reader (PerkinElmer). NanoBRET ratio was calculated by: BRET Ratio=raw signal for acceptor/raw signal for donor. Dose response curve normalized to DMSO control was plotted using four-parameter logistic model for IC50 calculation.

[2] = target: T2, CDK2-NanoLuc fusion with CCNE1 in 293T or 293 cells (Homo sapiens, UniProt P24941); experiment: NanoBRET Target Engagement (TE) Intracellular Kinase Assay, CDK2/CCNE1; settings: 2-hour incubation
T2 construct: host or cells: 293T (ATCC CRL-3216) or 293 (ATCC CRL-1573)

[3] = target: T3, CDK4-NanoLuc fusion with CCND1 in 293T or 293 cells (Homo sapiens, UniProt P11802); experiment: NanoBRET Target Engagement (TE) Intracellular Kinase Assay, CDK4/CCND1; settings: 2-hour incubation
T3 construct: host or cells: 293T (ATCC CRL-3216) or 293 (ATCC CRL-1573)
T3 sequence (P11802 whole entry, the tested form may be a part): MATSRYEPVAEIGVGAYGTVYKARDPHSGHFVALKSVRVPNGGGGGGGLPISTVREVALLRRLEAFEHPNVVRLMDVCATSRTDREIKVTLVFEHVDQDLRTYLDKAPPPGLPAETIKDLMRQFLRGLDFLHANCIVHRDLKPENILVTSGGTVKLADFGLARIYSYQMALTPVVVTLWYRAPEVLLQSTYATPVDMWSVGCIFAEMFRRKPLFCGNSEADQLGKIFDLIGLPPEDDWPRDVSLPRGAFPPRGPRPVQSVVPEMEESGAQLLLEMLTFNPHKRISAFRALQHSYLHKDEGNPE
T3 sequence (P24385 whole entry partner, the tested form may be a part): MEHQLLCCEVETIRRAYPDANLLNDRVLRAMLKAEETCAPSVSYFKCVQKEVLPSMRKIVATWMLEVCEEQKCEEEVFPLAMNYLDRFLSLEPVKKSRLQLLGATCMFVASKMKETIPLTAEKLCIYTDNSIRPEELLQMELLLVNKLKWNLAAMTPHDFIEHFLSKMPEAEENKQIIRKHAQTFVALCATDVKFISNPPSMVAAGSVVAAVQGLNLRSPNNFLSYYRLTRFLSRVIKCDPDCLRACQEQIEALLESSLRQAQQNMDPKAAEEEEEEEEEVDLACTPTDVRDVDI

[4] = tested on: Phospho-Rb Ser807/811 in OVCAR3 cells; experiment: OVCAR3 Phospho-Rb Ser807/811 HTRF assay; settings: Homo sapiens, OVCAR3 cells, Phospho-Rb Ser807/811 HTRF, 1 hour incubation, read-out: pRb-OVCAR3 IC50
Experimental: Cells were trypsinized and resuspended in 1 mM hydroxyurea (Sigma; H8627), 90% RPMI and 10% fetal bovine serum. […] Dose response curve normalized to DMSO control was plotted using four-parameter logistic model for IC50 calculation.

[5] = NanoBRET TE intracellular kinase assay, read-out: NanoBRET-CDK1/B1 IC50
[6] = NanoBRET TE intracellular kinase assay, read-out: NanoBRET-CDK2/E1 IC50
[7] = NanoBRET TE intracellular kinase assay, read-out: NanoBRET-CDK4/D1 IC50

T1 sequence (P06493 whole entry, the tested form may be a part): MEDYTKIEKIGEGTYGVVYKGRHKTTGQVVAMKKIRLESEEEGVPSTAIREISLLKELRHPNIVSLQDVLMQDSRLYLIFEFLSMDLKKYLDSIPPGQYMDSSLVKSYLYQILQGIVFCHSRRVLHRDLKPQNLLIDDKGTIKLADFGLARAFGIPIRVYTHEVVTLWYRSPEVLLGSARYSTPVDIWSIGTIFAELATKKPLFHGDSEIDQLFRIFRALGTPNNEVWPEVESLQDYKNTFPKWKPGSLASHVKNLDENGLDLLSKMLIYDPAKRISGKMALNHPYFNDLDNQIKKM
T1 sequence (P14635 whole entry partner, the tested form may be a part): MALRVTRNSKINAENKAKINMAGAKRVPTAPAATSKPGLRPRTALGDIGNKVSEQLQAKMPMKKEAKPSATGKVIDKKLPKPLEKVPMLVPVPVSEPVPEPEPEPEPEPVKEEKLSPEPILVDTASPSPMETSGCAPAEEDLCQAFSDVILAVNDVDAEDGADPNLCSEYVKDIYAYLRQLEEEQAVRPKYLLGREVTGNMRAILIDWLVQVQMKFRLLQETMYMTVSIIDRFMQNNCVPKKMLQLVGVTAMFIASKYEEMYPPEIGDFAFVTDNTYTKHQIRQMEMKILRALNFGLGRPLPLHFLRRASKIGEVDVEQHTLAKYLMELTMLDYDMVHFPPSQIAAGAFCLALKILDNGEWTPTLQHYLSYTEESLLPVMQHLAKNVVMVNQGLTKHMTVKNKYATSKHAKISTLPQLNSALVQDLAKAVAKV

Row | IC50 [1, 5] | IC50 [2, 6] | IC50 [3, 7] | IC50 ([4]; OVCAR-3, 1 h) | Structure (SMILES) | IC50 ([1]; NanoBRET-CDK1/B1 IC50, NanoBRET TE intracellular kinase assay) | IC50 ([2]; NanoBRET-CDK2/E1 IC50, NanoBRET TE intracellular kinase assay) | IC50 ([3]; NanoBRET-CDK4/D1 IC50, NanoBRET TE intracellular kinase assay) | IC50 ([4]; OVCAR-3)
1 | 30.6 nM | 6.48 nM | 4090 nM | 326 nM | Cc1cc(O)c(C=O)c(O[C@@H](C)C(=O)Nc2cc([C@H]3CC[C@@H](OC(=O)NC(C)C)C3)[nH]n2)c1 [Compound 252] | – | – | – | –
2 | 9.01 nM | 2.68 nM | 2120 nM | 34.5 nM | CCOc1cc(O)c(C=O)c(OCC(=O)Nc2cc([C@H]3CC[C@@H](OC(=O)N4CCC4(C)C)C3)[nH]n2)c1 [Compound 211, (1R,3S)-3-(3-(2-(5-ethoxy-2-formyl-3-hydroxyphenoxy)acetamido)-1H-pyrazol-5-yl)cyclopentyl 2,2-dimethylazetidine-1-carboxylate] | – | – | – | –
3 | 5.09 nM | 2.49 nM | 2600 nM | 18.7 nM | CCCN(C)C(=O)O[C@@H]1CC[C@H](c2cc(NC(=O)COc3cc(OC)cc(O)c3C=O)n[nH]2)C1 [Compound 225] | – | – | – | –
4 | – | – | – | – | COc1cc(O)c(C=O)c(OCC(=O)Nc2cc([C@H]3CC[C@@H](OC(=O)N4C5CCC4COC5)C3)[nH]n2)c1 [Compound 207, (1R,3S)-3-{5-[2-(2-formyl-3-hydroxy-5-methoxyphenoxy)acetamido]-2H-pyrazol-3-yl}cyclopentyl 3-oxa-8-azabicyclo[3.2.1]octane-8-carboxylate] | 6.54 nM | 2.25 nM | 4130 nM | 25.7 nM
5 | 7.08 nM | 5.47 nM | 6.91 nM | 68.8 nM | CC(C)NC(=O)O[C@@H]1CC[C@H](c2cc(NC(=O)Cc3ccc(C=O)c(O)c3)n[nH]2)C1 [Compound 4, (1R,3S)-3-{5-[2-(4-formyl-3-hydroxyphenyl)acetamido]-2H-pyrazol-3-yl}cyclopentyl N-isopropylcarbamate] | – | – | – | –
6 | 69.9 nM | 21.9 nM | > 10000 nM | 1430 nM | CC(C)NC(=O)O[C@@H]1CC[C@H](c2cc(NC(=O)c3cnc(-c4cccc(O)c4C=O)o3)n[nH]2)C1 [Compound 55, (1R,3S)-3-{5-[2-(2-formyl-3-hydroxyphenyl)-1,3-oxazole-5-amido]-2H-pyrazol-3-yl}cyclopentyl N-isopropylcarbamat] | – | – | – | –
7 | 98.9 nM | 5.34 nM | 196 nM | 552 nM | CC(C)NC(=O)O[C@@H]1CC[C@H](c2cc(NC(=O)CCOc3cccc(O)c3C=O)n[nH]2)C1 [Compound 34, (1R,3S)-3-{5-[3-(2-formyl-3-hydroxyphenoxy)propanamido]-2H-pyrazol-3-yl}cyclopentyl N-isopropylcarbamate; trifluoroacetic acid] | – | – | – | –
8 | 129 nM | 7.13 nM | 1820 nM | 601 nM | CC(C)NC(=O)O[C@@H]1CC[C@H](c2cc(NC(=O)CSc3cccc(O)c3C=O)n[nH]2)C1 [Compound 96, (1R,3S)-3-(5-{2-[(2-formyl-3-hydroxyphenyl)sulfanyl]acetamido}-2H-pyrazol-3-yl)cyclopentyl N-isopropylcarbamate; trifluoroacetic acid] | – | – | – | –
9 | 224 nM | 98.9 nM | 9430 nM | 1170 nM | CC(C)NC(=O)O[C@@H]1CC[C@H](c2cc(NC(=O)COc3cc(C#N)cc(O)c3C=O)n[nH]2)C1 [Compound 47, 1R,3S)-3-(3-(2-(5-cyano-2-formyl-3-hydroxyphenoxy)acetamido)-1H-pyrazol-5-yl)cyclopentyl isopropylcarbamate] | – | – | – | –
10 | 50.3 nM | 29.2 nM | 4700 nM | 449 nM | CC(C)NC(=O)O[C@@H]1CC[C@H](c2cc(NC(=O)C3C[C@H]3c3cccc(O)c3C=O)n[nH]2)C1 (stereo in doubt) [Compound 9, (1R,3S)-3-{5-[(1R,2R)-2-(2-formyl-3-hydroxyphenyl)cyclopropaneamido]-2H-pyrazol-3-yl}cyclopentyl N-isopropylcarbamate] | – | – | – | –
11 | 2.19 nM | 2.47 nM | 2690 nM | 22.1 nM | COc1cc(O)c(C=O)c(OCC(=O)Nc2cc([C@H]3CC[C@@H](OC(=O)N4CC[C@H](F)C4)C3)[nH]n2)c1 [Compound 233] | – | – | – | –
12 | 15 nM | 4.44 nM | 9910 nM | 64.6 nM | C#C[C@H](C)NC(=O)O[C@@H]1CC[C@H](c2cc(NC(=O)COc3cc(OC)cc(O)c3C=O)n[nH]2)C1 [Compound 216] | – | – | – | –
13 | 299 nM | 9.94 nM | 1210 nM | 1330 nM | CC(C)NC(=O)O[C@@H]1CC[C@H](c2cc(Nc3cc(OCc4cccc(O)c4C=O)ccn3)n[nH]2)C1 [Compound 25, (1R,3S)-3-[5-({4-[(2-formyl-3-hydroxyphenyl)methoxy]pyridine-2-yl}amino)-2H-pyrazol-3-yl]cyclopentyl N-isopropylcarbamate] | – | – | – | –
14 | 1140 nM | 8.75 nM | 9440 nM | 3020 nM | CC(C)NC(=O)O[C@@H]1CC[C@H](c2cc(NC(=O)COc3cccc(Cl)c3C=O)n[nH]2)C1 [Compound 97, (1R,3S)-3-{5-[2-(3-chloro-2-formylphenoxy)acetamido]-2H-pyrazol-3-yl}cyclopentyl N-isopropylcarbamate] | – | – | – | –
15 | 12.8 nM | 7.32 nM | 8710 nM | 120 nM | CC(C)NC(=O)O[C@@H]1CC[C@H](c2cc(NC(=O)COc3cc(OC(F)F)cc(O)c3C=O)n[nH]2)C1 [Compound 100, (1R,3S)-3-(5-{2-[5-(difluoromethoxy)-2-formyl-3-hydroxyphenoxy]acetamido}-2H-pyrazol-3-yl)cyclopentyl N-isopropylcarbamate] | – | – | – | –
16 | 7.4 nM | 1.54 nM | 2800 nM | 22.1 nM | COc1cc(O)c(C=O)c(OCC(=O)Nc2cc([C@H]3CC[C@@H](OC(=O)N4CC[C@@H](F)C4)C3)[nH]n2)c1 [Compound 240] | – | – | – | –
17 | 32.8 nM | 9.48 nM | 255 nM | 129 nM | CC(C)NC(=O)O[C@@H]1CC[C@H](c2cc(NC(=O)c3ccc(O)c(C=O)c3)n[nH]2)C1 [Compound 3, (1R,3S)-3-(3-(3-formyl-4-hydroxybenzamido)-1H-pyrazol-5-yl)cyclopentyl isopropylcarbamate trifluoroacetic acid] | – | – | – | –
18 | 20.5 nM | 5.32 nM | 3060 nM | 272 nM | CC(C)NC(=O)O[C@@H]1CC[C@H](c2cc(NC(=O)c3cc(-c4cccc(NS(C)(=O)=O)c4C=O)nn3C)n[nH]2)C1 [Compound 41, (1R,3S)-3-{5-[5-(2-formyl-3-methanesulfonamidophenyl)-2-methylpyrazole-3-amido]-2H-pyrazol-3-yl}cyclopentyl N-isopropylcarbamate; trifluoroacetic acid] | – | – | – | –
19 | 51.2 nM | 27.2 nM | > 10000 nM | 212 nM | CC(C)NC(=O)O[C@@H]1CC[C@H](c2cc(NC(=O)COc3ccc(F)c(O)c3C=O)n[nH]2)C1 [Compound 43, (1R,3S)-3-{5-[2-(4-fluoro-2-formyl-3-hydroxyphenoxy)acetamido]-2H-pyrazol-3-yl}cyclopentyl N-isopropylcarbamate; trifluoroacetic acid] | – | – | – | –
20 | 491 nM | 17.8 nM | 3160 nM | 2740 nM | CC(C)NC(=O)O[C@@H]1CC[C@H](c2cc(NC(=O)c3cc(CCc4cccc(O)c4C=O)nn3C)n[nH]2)C1 [Compound 30, (1R,3S)-3-(5-{5-[2-(2-formyl-3-hydroxyphenyl)ethyl]-2-methylpyrazole-3-amido}-2H-pyrazol-3-yl)cyclopentyl N-isopropylcarbamate] | – | – | – | –
21 | 13.1 nM | 5.05 nM | > 10000 nM | 66.9 nM | COc1cc(O)c(C=O)c(OCC(=O)Nc2cc([C@H]3CC[C@@H](OC(=O)N4CC[C@H](OC)C4)C3)[nH]n2)c1 [Compound 242] | – | – | – | –

From patent US20250289789A1, “REVERSIBLE LYSINE COVALENT MODIFIERS OF CDK2 AND USES THEREOF” (Terremoto Biosciences, Inc., priority 2023, published 2025)
